In US8580803B2, “Substituted pyrrolo-aminopyrimidine compounds” (ArQule, Inc., priority 2009, dated 2013) one finds IC50 data, which are given here for 28 compounds.

As a reminder, the IC50 is the concentration at which inhibition is half-maximal.

T1 sequence (Q07912 110-489, species assumed): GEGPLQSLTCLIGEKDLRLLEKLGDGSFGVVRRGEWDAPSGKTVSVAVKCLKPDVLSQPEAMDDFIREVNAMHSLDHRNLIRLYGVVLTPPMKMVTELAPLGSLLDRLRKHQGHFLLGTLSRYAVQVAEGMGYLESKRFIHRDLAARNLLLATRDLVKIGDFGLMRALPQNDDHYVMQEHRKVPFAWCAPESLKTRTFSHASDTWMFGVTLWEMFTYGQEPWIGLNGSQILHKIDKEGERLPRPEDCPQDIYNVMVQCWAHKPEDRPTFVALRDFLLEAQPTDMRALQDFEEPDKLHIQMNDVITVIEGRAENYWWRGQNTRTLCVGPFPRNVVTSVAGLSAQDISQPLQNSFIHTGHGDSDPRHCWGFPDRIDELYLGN

The test concerns the target T1, ACK1 (110-489) (Homo sapiens, UniProt Q07912).
T1 construct: ACK1 110-489 (12.5 μl) were added to each well
Put plainly: ACK1 Activity Assay (AlphaScreen, PYK2-derived peptide). Conditions: Average of ACK1(110-489), IC50, AlphaScreen (Pyk2); read-out: ACK1 (110-489) IC50. It counts as biochemical. The method, then:
The extent of peptide phosphorylation was determined by using acceptor beads conjugated to phosphotyrosine antibody that recognizes the phosphorylated peptide and donor beads conjugated to streptavidin that binds to the biotin on the peptide. Excitation of the donor beads converted ambient oxygen to excited singlet oxygen which when in close proximity to acceptor beads, reacted with acceptor beads where the signal was amplified.
Test inhibitors and controls (N-(2,6-dimethylphenyl)-4-(2-ethoxyphenoxy)-2-[(4-piperazin-1-ylphenyl)amino]pyrimidine-5-carboxamide) were prepared in 10% DMSO at 10× the desired final concentration. […] After a 20-min incubation at room temperature, the kinase reaction was initiated by the addition of 10 μl of PYK2/ATP mixture. […] The plates were incubated for 60 min at room temperature. The reaction was stopped by the addition of 10 μl stop/detection mixture which contains EDTA (final concentration is 10 mM), AlphaScreen™ Streptavidin Donor beads (final concentration is 500 ng/well) and AlphaScreen™ Phospho-tyrosine (P-Tyr-100) Acceptor beads (final concentration is 500 ng/well) were diluted in assay buffer. This reagent addition step was performed in the dark because the AlphaScreen™ beads are light-sensitive. The plate was incubated for 60 min at room temperature in the dark and the plates were read on the Perkin Elmer Envision Multilabel plate reader ([…]).
(Alpha assays give light when donor and acceptor beads are brought close together.)
On to `O=C(Cn1ccnc1)Nc1ccc(Nc2ncnc3[nH]cc(C(=O)c4ccccc4)c23)cc1` [2-(1H-imidazol-1-yl)-N-(4-{[5-(phenylcarbonyl)-7H-pyrrolo[2,3-d]pyrimidin-4-yl]amino}phenyl)acetamide], for which the 50% inhibitory concentration (IC50) was determined as 798 nM. As to `COCc1ccc(CC(=O)Nc2ccc(Nc3ncnc4[nH]cc(C(=O)c5ccccc5)c34)cc2)cc1` [2-[4-(methoxymethyl)phenyl]-N-(4-{[5-(phenylcarbonyl)-7H-pyrrolo[2,3-d]pyrimidin-4-yl]amino}phenyl)acetamide], the IC50 amounted to 69000 nM.

Take `O=C(Nc1ccc(N2CCCCC2)cc1)c1cccc(Nc2ncnc3[nH]cc(C(=O)c4ccccc4)c23)c1` [3-[(5-benzoyl-7H-pyrrolo[2,3-d]pyrimidin-4-yl)amino]-N-(4-piperidin-1-ylphenyl)benzamide]: the half-maximal inhibitory concentration (IC50) worked out at 31400 nM. Take `CC(=O)NCCC(=O)Nc1ccc(Nc2ncnc3[nH]cc(C(=O)c4ccccc4)c23)cc1` [3-acetamido-N-(4-((5-benzoyl-7H-pyrrolo[2,3-d]pyrimidin-4-yl)amino)phenyl)propanamide]: the half-maximal inhibitory concentration (IC50) was found to be 776 nM.

For `O=C(Nc1ccc(Nc2ncnc3[nH]cc(C(=O)c4ccccc4)c23)cc1)c1ccncc1Cl` [3-chloro-N-(4-{[5-(phenylcarbonyl)-7H-pyrrolo[2,3-d]pyrimidin-4-yl]amino}phenyl)pyridine-4-carboxamide], the IC50 is 28900 nM. To `CN(C)CCCC(=O)Nc1ccc(Nc2ncnc3[nH]cc(C(=O)c4ccccc4)c23)cc1` [4-(dimethylamino)-N-(4-{[5-(phenylcarbonyl)-7H-pyrrolo[2,3-d]pyrimidin-4-yl]amino}phenyl)butanamide] belongs 2570 nM; to `O=C(Nc1ccc(Nc2ncnc3[nH]cc(C(=O)c4ccccc4)c23)cc1)c1ccc(CN2CCOCC2)cc1` [4-(morpholin-4-ylmethyl)-N-(4-{[5-(phenylcarbonyl)-7H-pyrrolo[2,3-d]pyrimidin-4-yl]amino}phenyl)benzamide], 10900 nM. To `COCCCC(=O)Nc1ccc(Nc2ncnc3[nH]cc(C(=O)c4ccccc4)c23)cc1` [4-methoxy-N-(4-{[5-(phenylcarbonyl)-7H-pyrrolo[2,3-d]pyrimidin-4-yl]amino}phenyl)butanamide] belongs 1020 nM; to `O=C(c1ccccc1)c1c[nH]c2ncnc(Nc3ccc4cc[nH]c4c3)c12` [(4-((1H-indol-6-yl)amino)-7H-pyrrolo[2,3-d]pyrimidin-5-yl)(phenyl)methanone], 61500 nM.

With `COc1ccc(Nc2ncnc3[nH]cc(C(=O)c4ccccc4)c23)c(OC)c1` [(4-((2,4-dimethoxy-phenyl)amino)-7H-pyrrolo[2,3-d]pyrimidin-5-yl)(phenyl)methanone], the IC50 was 4530 nM.

Take `CN(C)CC(=O)Nc1ccc(Nc2ncnc3[nH]cc(C(=O)c4ccccc4)c23)cc1` [N-(4-((5-benzoyl-7H-pyrrolo[2,3-d]pyrimidin-4-yl)amino)phenyl)-2-(dimethylamino)acetamide]: the IC50 turned out to be 241 nM. `CN(C)CCC(=O)Nc1ccc(Nc2ncnc3[nH]cc(C(=O)c4ccccc4)c23)cc1` [N-(4-((5-benzoyl-7H-pyrrolo[2,3-d]pyrimidin-4-yl)amino)phenyl)-3-(dimethylamino)propanamide]: the IC50 was 415 nM.

In the case of `O=C(c1ccccc1)c1c[nH]c2ncnc(Nc3ccc(NC(=O)C4CCN(c5ccncc5)CC4)cc3)c12` [N-(4-{[5-(phenylcarbonyl)-7H-pyrrolo[2,3-d]pyrimidin-4-yl]amino}phenyl)-1-pyridin-4-ylpiperidine-4-carboxamide], the half-inhibitory concentration (IC50) came out at 1270 nM. To `O=C(CCc1cccnc1)Nc1ccc(Nc2ncnc3[nH]cc(C(=O)c4ccccc4)c23)cc1` [N-(4-{[5-(phenylcarbonyl)-7H-pyrrolo[2,3-d]pyrimidin-4-yl]amino}phenyl)-3-pyridin-3-ylpropanamide] belongs 4390 nM. To `NC(=O)CCC(=O)Nc1ccc(Nc2ncnc3[nH]cc(C(=O)c4ccccc4)c23)cc1` [N-(4-{[5-(phenylcarbonyl)-7H-pyrrolo[2,3-d]pyrimidin-4-yl]amino}phenyl)butanediamide] belongs 646 nM. To `CC(C)C(=O)Nc1ccc(Nc2ncnc3[nH]cc(C(=O)c4ccccc4)c23)cc1` [N-{4-[(5-benzoyl-7H-pyrrolo[2,3-d]pyrimidin-4-yl)amino]phenyl}-2-methylpropanamide] belongs 4770 nM. With `CCCC(=O)Nc1ccc(Nc2ncnc3[nH]cc(C(=O)c4ccccc4)c23)cc1` [N-{4-[(5-benzoyl-7H-pyrrolo[2,3-d]pyrimidin-4-yl)amino]phenyl}butanamide], the half-maximal inhibitory concentration (IC50) came out at 3770 nM. To `CC(=O)Nc1ccc(Nc2ncnc3[nH]cc(C(=O)c4ccccc4)c23)cc1` [drawing 241, N-{4-[(5-benzoyl-7H-pyrrolo[2,3-d]pyrimidin-4-yl)amino]phenyl}acetamide] belongs 1430 nM. With `CNC(=O)c1cccc(Nc2ncnc3[nH]cc(C(=O)c4ccccc4C)c23)c1` [drawing 242, N-methyl-3-{[5-(2-methylbenzoyl)-7H-pyrrolo[2,3-d]pyrimidin-4-yl]amino}benzamide], the IC50 turned out to be 189 nM. To `CC(=O)Nc1cccc(Nc2ncnc3[nH]cc(C(=O)c4ccccc4C)c23)c1` [drawing 243, N-(3-{[5-(2-methylbenzoyl)-7H-pyrrolo[2,3-d]pyrimidin-4-yl]amino}phenyl)acetamide] belongs 1260 nM; to `CNC(=O)c1cccc(Nc2ncnc3[nH]cc(C(=O)c4cccc(F)c4)c23)c1` [drawing 244, 3-{[5-(3-fluorobenzoyl)-7H-pyrrolo[2,3-d]pyrimidin-4-yl]amino}-N-methylbenzamide], 914 nM; to `CC(=O)Nc1cccc(Nc2ncnc3[nH]cc(C(=O)c4cccc(F)c4)c23)c1` [drawing 245, N-(3-{[5-(3-fluorobenzoyl)-7H-pyrrolo[2,3-d]pyrimidin-4-yl]amino}phenyl)acetamide], 2290 nM. Turning to `O=C(Cc1cncc(Br)c1)Nc1cccc(Nc2ncnc3[nH]cc(C(=O)c4ccccc4)c23)c1` [drawing 251, N-{3-[(5-benzoyl-7H-pyrrolo[2,3-d]pyrimidin-4-yl)amino]phenyl}-2-(5-bromopyridin-3-yl)acetamide], the IC50 came to 1470 nM. Turning to `NCc1ccc(Nc2ncnc3[nH]cc(C(=O)c4ccccc4)c23)cc1` [drawing 258, (4-{[4-(aminomethyl)phenyl]amino}-7H-pyrrolo[2,3-d]pyrimidin-5-yl)(phenyl)methanone], the IC50 was 446 nM. The result for `O=C(c1ccccc1)c1c[nH]c2ncnc(Nc3cccc(CCO)c3)c12` [drawing 259, (4-{[3-(2-hydroxyethyl)phenyl]amino}-7H-pyrrolo[2,3-d]pyrimidin-5-yl)(phenyl)methanone] reads 5140 nM; that for `O=C(Nc1ccccc1)Nc1cccc(Nc2ncnc3[nH]cc(C(=O)c4ccccc4)c23)c1` [drawing 260, 1-phenyl-3-(3-{[5-(phenylcarbonyl)-7H-pyrrolo[2,3-d]pyrimidin-4-yl]amino}phenyl)urea], 28100 nM; that for `CC(C)(C)NC(=O)Nc1cccc(Nc2ncnc3[nH]cc(C(=O)c4ccccc4)c23)c1` [drawing 274, 1-tert-butyl-3-(3-{[5-(phenylcarbonyl)-7H-pyrrolo[2,3-d]pyrimidin-4-yl]amino}phenyl)urea], 6650 nM. Take `CCNC(=O)Nc1cccc(Nc2ncnc3[nH]cc(C(=O)c4ccccc4)c23)c1` [drawing 275, 1-ethyl-3-(3-{[5-(phenylcarbonyl)-7H-pyrrolo[2,3-d]pyrimidin-4-yl]amino}phenyl)urea]: the IC50 is 1810 nM.
